Experimental data as given in US20240158446A1, “CYCLIC COMPOUND HAVING SELECTIVE INHIBITORY ACTION ON KRAS OVER HRAS AND NRAS” (CHUGAI SEIYAKU KABUSHIKI KAISHA, priority 2021, published 2024).

How the values were obtained:
[1] = target: GDP-bound HRAS wild-type protein (Homo sapiens, UniProt P01112); test: Binding to HRAS by surface plasmon resonance (SPR), Single Cycle Kinetics; conditions: SPR; GDP-bound HRAS wild-type protein vs GDP-bound KRAS wild-type protein; KD ratio class
[2] = target: GDP-bound NRAS wild-type protein (Homo sapiens, UniProt P01111); test: Binding to NRAS by surface plasmon resonance (SPR), Single Cycle Kinetics; conditions: SPR; GDP-bound NRAS wild-type protein vs GDP-bound KRAS wild-type protein; KD ratio class
Chain of GDP-bound NRAS wild-type protein (P01111 whole entry): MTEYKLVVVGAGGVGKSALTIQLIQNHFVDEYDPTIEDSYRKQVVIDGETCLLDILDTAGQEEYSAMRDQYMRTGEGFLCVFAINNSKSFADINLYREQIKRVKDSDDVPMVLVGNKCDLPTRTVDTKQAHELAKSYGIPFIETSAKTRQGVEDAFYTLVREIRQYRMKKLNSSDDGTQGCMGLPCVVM

[3] = target: GDP-bound KRAS wild-type protein (Homo sapiens, UniProt P01116); test: Binding to KRAS by surface plasmon resonance (SPR), Single Cycle Kinetics; conditions: SPR, Single Cycle Kinetics, 1:1 binding model; GDP-bound KRAS wild-type protein; read-out: KRAS KD
Chain of GDP-bound KRAS wild-type protein (P01116 whole entry): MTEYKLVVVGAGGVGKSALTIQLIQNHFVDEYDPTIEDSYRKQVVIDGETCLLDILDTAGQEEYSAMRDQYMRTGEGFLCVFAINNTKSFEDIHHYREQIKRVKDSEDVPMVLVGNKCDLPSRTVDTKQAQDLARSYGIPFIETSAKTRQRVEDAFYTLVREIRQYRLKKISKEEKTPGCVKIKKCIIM

Chain of GDP-bound HRAS wild-type protein (P01112 whole entry): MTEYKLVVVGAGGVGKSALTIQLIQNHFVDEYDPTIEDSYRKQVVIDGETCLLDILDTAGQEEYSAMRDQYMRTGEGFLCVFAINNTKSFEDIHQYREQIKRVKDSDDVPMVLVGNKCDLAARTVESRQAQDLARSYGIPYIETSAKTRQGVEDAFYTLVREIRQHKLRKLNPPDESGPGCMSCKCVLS

Structure (SMILES) | HRAS/KRAS (ratio of KD value for HRAS to KD value for KRAS) [1] | NRAS/KRAS (ratio of KD value for NRAS to KD value for KRAS) [2] | Kd [3] [nM]
CCO[C@@H]1C[C@H]2C(=O)NC3(CCC3)C(=O)N(C)[C@@H](C3CCCC3)C(=O)N(C)[C@H](C(=O)N(C)CC)CC(=O)N(C)[C@@H](C)C(=O)N[C@@H]([C@@H](C)CC)C(=O)N(C)CC(=O)N(C)[C@H]3C/C=C\CCN(C3=O)[C@@H](Cc3ccc(C(F)(F)F)cc3)C(=O)N(C)CC(=O)N[C@@H](CCc3cc(F)c(C(F)(F)F)c(F)c3)C(=O)N2C1 [PP1302, (2S,8S,12R,14S,20S,23S,27S,30S,36S,38Z)-20-cyclopentyl-8-[2-[3,5-difluoro-4-(trifluoromethyl)phenyl]ethyl]-12-ethoxy-N-ethyl-N,4,19,22,26,27,32,35-octamethyl-30-[(1S)-1-methylpropyl]-3,6,9,15,18,21,25,28,31,34,42-undecaoxo-2-[[4-(trifluoromethyl)phenyl]methyl]spiro[1,4,7,10,16,19,22,26,29,32,35-undecazatricyclo[34.5.1.0^10,14]dotetracont-38-ene-17,1′-cyclobutane]-23-carboxamide] | A (a compound having 10 or more and less than 20 is denoted as A) | A (a compound having 10 or more and less than 20 is denoted as A) | 0.057
CCO[C@@H]1C[C@H]2C(=O)NC3(CCC3)C(=O)N(C)[C@@H](C3CCCC3)C(=O)N(C)[C@H](C(=O)N(C)CC)CC(=O)N(C)[C@@H](CC(F)F)C(=O)N[C@@H]([C@@H](C)CC)C(=O)N(C)CC(=O)N(C)[C@H]3C/C=C\CCN(C3=O)[C@@H](Cc3ccc(C(F)(F)F)cc3)C(=O)N(C)CC(=O)N[C@@H](CCc3cc(F)c(C(F)(F)F)c(F)c3)C(=O)N2C1 [PP1303] | A (a compound having 10 or more and less than 20 is denoted as A) | AA (a compound having 20 or more is denoted as AA) | 0.068
CCC[C@H]1C(=O)N[C@@H]([C@@H](C)CC)C(=O)N(C)CC(=O)N(C)[C@H]2C/C=C\CCN(C2=O)[C@@H](Cc2ccc(C(F)(F)F)cc2)C(=O)N(C)CC(=O)N[C@@H](CCc2cc(F)c(C(F)(F)F)c(F)c2)C(=O)N2C[C@H](OCC)C[C@H]2C(=O)NC2(CCC2)C(=O)N(C)[C@@H](C2CCCC2)C(=O)N(C)[C@H](C(=O)N(C)CC)CC(=O)N1C [PP1304, (2S,8S,12R,14S,20S,23S,27S,30S,36S,38Z)-20-cyclopentyl-8-[2-[3,5-difluoro-4-(trifluoromethyl)phenyl]ethyl]-12-ethoxy-N-ethyl-N,4,19,22,26,32,35-heptamethyl-30-[(1S)-1-methylpropyl]-3,6,9,15,18,21,25,28,31,34,42-undecaoxo-27-propyl-2-[[4-(trifluoromethyl)phenyl]methyl]spiro[1,4,7,10,16,19,22,26,29,32,35-undecazatricyclo[34.5.1.0^10,14]dotetracont-38-ene-17,1′-cyclobutane]-23-carboxamide] | A (a compound having 10 or more and less than 20 is denoted as A) | A (a compound having 10 or more and less than 20 is denoted as A) | 0.07
CCO[C@@H]1C[C@H]2C(=O)NC3(CCC3)C(=O)N(C)[C@@H](C3CCCC3)C(=O)N(C)[C@H](C(=O)N(CC)CC)CC(=O)N(C)[C@@H](CC)C(=O)N[C@@H]([C@@H](C)CC)C(=O)N(C)CC(=O)N(C)[C@H]3C/C=C\CCN(C3=O)[C@@H](Cc3ccc(C(F)(F)F)cc3)C(=O)N(C)CC(=O)N[C@@H](CCc3cc(F)c(C(F)(F)F)c(F)c3)C(=O)N2C1 [PP1305, (2S,8S,12R,14S,20S,23S,27S,30S,36S,38Z)-20-cyclopentyl-8-[2-[3,5-difluoro-4-(trifluoromethyl)phenyl]ethyl]-12-ethoxy-N,N,27-triethyl-4,19,22,26,32,35-hexamethyl-30-[(1S)-1-methylpropyl]-3,6,9,15,18,21,25,28,31,34,42-undecaoxo-2-[[4-(trifluoromethyl)phenyl]methyl]spiro[1,4,7,10,16,19,22,26,29,32,35-undecazatricyclo[34.5.1.0^10,14]dotetracont-38-ene-17,1′-cyclobutane]-23-carboxamide] | A (a compound having 10 or more and less than 20 is denoted as A) | AA (a compound having 20 or more is denoted as AA) | 0.12
CCO[C@@H]1C[C@H]2C(=O)NC3(CCC3)C(=O)N(C)[C@@H](C3CCCC3)C(=O)N(C)[C@H](C(=O)N(CC)CC)CC(=O)N(C)[C@@H](CC(C)C)C(=O)N[C@@H]([C@@H](C)CC)C(=O)N(C)CC(=O)N(C)[C@H]3C/C=C\CCN(C3=O)[C@@H](Cc3ccc(C(F)(F)F)cc3)C(=O)N(C)CC(=O)N[C@@H](CCc3cc(F)c(C(F)(F)F)c(F)c3)C(=O)N2C1 [PP1306] | A (a compound having 10 or more and less than 20 is denoted as A) | AA (a compound having 20 or more is denoted as AA) | 0.2
CCO[C@@H]1C[C@H]2C(=O)NC3(CCC3)C(=O)N(C)[C@@H](C3CCCC3)C(=O)N(C)[C@H](C(=O)N(CC)CC)CC(=O)N(C)[C@@H](C)C(=O)N[C@@H]([C@@H](C)CC)C(=O)N(C)CC(=O)N(C)[C@H]3C/C=C\CCN(C3=O)[C@@H](Cc3ccc(C(F)(F)F)cc3)C(=O)N(C)CC(=O)N[C@@H](CCc3cc(F)c(C(F)(F)F)c(F)c3)C(=O)N2C1 [PP1308, (2S,8S,12R,14S,20S,23S,27S,30S,36S,38Z)-20-cyclopentyl-8-[2-[3,5-difluoro-4-(trifluoromethyl)phenyl]ethyl]-12-ethoxy-N,N-diethyl-4,19,22,26,27,32,35-heptamethyl-30-[(1S)-1-methylpropyl]-3,6,9,15,18,21,25,28,31,34,42-undecaoxo-2-[[4-(trifluoromethyl)phenyl]methyl]spiro[1,4,7,10,16,19,22,26,29,32,35-undecazatricyclo[34.5.1.0^10,14]dotetracont-38-ene-17,1′-cyclobutane]-23-carboxamide] | A (a compound having 10 or more and less than 20 is denoted as A) | A (a compound having 10 or more and less than 20 is denoted as A) | 0.1
CCC[C@H]1C(=O)N[C@@H]([C@@H](C)CC)C(=O)N(C)CC(=O)N(C)[C@H]2C/C=C\CCN(C2=O)[C@@H](Cc2ccc(C(F)(F)F)cc2)C(=O)N(C)CC(=O)N[C@@H](CCc2cc(F)c(C(F)(F)F)c(F)c2)C(=O)N2C[C@H](OCC)C[C@H]2C(=O)NC2(CCC2)C(=O)N(C)[C@@H](C2CCCC2)C(=O)N(C)[C@H](C(=O)N(CC)CC)CC(=O)N1C [PP1310, (2S,8S,12R,14S,20S,23S,27S,30S,36S,38Z)-20-cyclopentyl-8-[2-[3,5-difluoro-4-(trifluoromethyl)phenyl]ethyl]-12-ethoxy-N,N-diethyl-4,19,22,26,32,35-hexamethyl-30-[(1S)-1-methylpropyl]-3,6,9,15,18,21,25,28,31,34,42-undecaoxo-27-propyl-2-[[4-(trifluoromethyl)phenyl]methyl]spiro[1,4,7,10,16,19,22,26,29,32,35-undecazatricyclo[34.5.1.0^10,14]dotetracont-38-ene-17,1′-cyclobutane]-23-carboxamide] | A (a compound having 10 or more and less than 20 is denoted as A) | AA (a compound having 20 or more is denoted as AA) | 0.13
CCO[C@@H]1C[C@H]2C(=O)NC3(CCC3)C(=O)N(C)[C@@H](C3CCCC3)C(=O)N(C)[C@H](C(=O)N(C)CCOC)CC(=O)N(C)[C@@H](CC)C(=O)N[C@@H]([C@@H](C)CC)C(=O)N(C)CC(=O)N(C)[C@H]3C/C=C\CCN(C3=O)[C@@H](Cc3ccc(C(F)(F)F)cc3)C(=O)N(C)CC(=O)N[C@@H](CCc3cc(F)c(C(F)(F)F)c(F)c3)C(=O)N2C1 [PP1316, (2S,8S,12R,14S,20S,23S,27S,30S,36S,38Z)-20-cyclopentyl-8-[2-[3,5-difluoro-4-(trifluoromethyl)phenyl]ethyl]-12-ethoxy-27-ethyl-N-(2-methoxyethyl)-N,4,19,22,26,32,35-heptamethyl-30-[(1S)-1-methylpropyl]-3,6,9,15,18,21,25,28,31,34,42-undecaoxo-2-[[4-(trifluoromethyl)phenyl]methyl]spiro[1,4,7,10,16,19,22,26,29,32,35-undecazatricyclo[34.5.1.0^10,14]dotetracont-38-ene-17,1′-cyclobutane]-23-carboxamide] | A (a compound having 10 or more and less than 20 is denoted as A) | A (a compound having 10 or more and less than 20 is denoted as A) | 0.072
CCO[C@@H]1C[C@H]2C(=O)NC3(CCC3)C(=O)N(C)[C@@H](C3CCCC3)C(=O)N(C)[C@H](C(=O)N(C)CCOC)CC(=O)N(C)[C@@H](CC(C)C)C(=O)N[C@@H]([C@@H](C)CC)C(=O)N(C)CC(=O)N(C)[C@H]3C/C=C\CCN(C3=O)[C@@H](Cc3ccc(C(F)(F)F)cc3)C(=O)N(C)CC(=O)N[C@@H](CCc3cc(F)c(C(F)(F)F)c(F)c3)C(=O)N2C1 [PP1317] | B (a compound having 3 or more and less than 10 is denoted as B) | A (a compound having 10 or more and less than 20 is denoted as A) | 0.094
CCO[C@@H]1C[C@H]2C(=O)NC3(CCC3)C(=O)N(C)[C@@H](C3CCCC3)C(=O)N(C)[C@H](C(=O)N(C)CCOC)CC(=O)N(C)[C@@H](CC3CC3)C(=O)N[C@@H]([C@@H](C)CC)C(=O)N(C)CC(=O)N(C)[C@H]3C/C=C\CCN(C3=O)[C@@H](Cc3ccc(C(F)(F)F)cc3)C(=O)N(C)CC(=O)N[C@@H](CCc3cc(F)c(C(F)(F)F)c(F)c3)C(=O)N2C1 [PP1318] | A (a compound having 10 or more and less than 20 is denoted as A) | A (a compound having 10 or more and less than 20 is denoted as A) | 0.091
